# Reference: the NIST ThermoML archive (doi:10.1021/je700640r)
# ± gives the expanded uncertainty stated by the source.
# Assay: activity coefficient (dimensionless); of the first substance listed, at infinite dilution; xn = mol fraction of the nth substance listed
# Conditions: Liquid, Chromatography, x1 = 0
Compound,activity coefficient (303.15 K),activity coefficient (313.15 K),activity coefficient (323.15 K),activity coefficient (333.15 K),activity coefficient (343.15 K),activity coefficient (353.15 K),activity coefficient (363.15 K)
CC(C)CO [2-methyl-1-propanol] + CCC[n+]1ccn(C)c1C.F[B-](F)(F)F,4.17 ± 0.36,3.87 ± 0.33,3.47 ± 0.3,3.07 ± 0.26,2.62 ± 0.23,2.38 ± 0.2,2.03 ± 0.17
CC#N [acetonitrile] + CCC[n+]1ccn(C)c1C.F[B-](F)(F)F,1.4 ± 0.12,1.39 ± 0.12,1.38 ± 0.12,1.37 ± 0.12,1.36 ± 0.11,1.35 ± 0.11,1.34 ± 0.11
CCO [ethanol] + CCC[n+]1ccn(C)c1C.F[B-](F)(F)F,1.86 ± 0.16,1.68 ± 0.14,1.6 ± 0.14,1.51 ± 0.13,1.44 ± 0.12,1.35 ± 0.11,1.18 ± 0.098
CCC(C)O (configuration not stated) [butan-2-ol] + CCC[n+]1ccn(C)c1C.F[B-](F)(F)F,4.28 ± 0.37,3.99 ± 0.34,3.67 ± 0.32,3.3 ± 0.28,2.87 ± 0.25,2.5 ± 0.22,2.13 ± 0.18
CCCCO [butan-1-ol] + CCC[n+]1ccn(C)c1C.F[B-](F)(F)F,5.05 ± 0.44,4.67 ± 0.4,4.2 ± 0.36,3.73 ± 0.32,3.2 ± 0.28,2.67 ± 0.23,2.27 ± 0.2
CCOC(C)=O [ethyl acetate] + CCC[n+]1ccn(C)c1C.F[B-](F)(F)F,8.86 ± 0.77,8.84 ± 0.76,8.79 ± 0.76,8.75 ± 0.76,8.71 ± 0.75,8.66 ± 0.75,8.63 ± 0.74
C1CCOC1 [tetrahydrofuran] + CCC[n+]1ccn(C)c1C.F[B-](F)(F)F,6.03 ± 0.52,5.98 ± 0.52,5.95 ± 0.51,5.92 ± 0.51,5.88 ± 0.51,5.82 ± 0.5,5.78 ± 0.5
CC(C)O [propan-2-ol] + CCC[n+]1ccn(C)c1C.F[B-](F)(F)F,2.62 ± 0.23,2.53 ± 0.22,2.45 ± 0.21,2.33 ± 0.2,2.21 ± 0.19,2.04 ± 0.18,1.86 ± 0.16
ClCCl [dichloromethane] + CCC[n+]1ccn(C)c1C.F[B-](F)(F)F,1.67 ± 0.14,1.74 ± 0.15,1.84 ± 0.16,1.93 ± 0.17,2.01 ± 0.17,2.09 ± 0.18,2.17 ± 0.19
CC(C)=O [acetone] + CCC[n+]1ccn(C)c1C.F[B-](F)(F)F,2.47 ± 0.21,2.53 ± 0.22,2.55 ± 0.22,2.61 ± 0.23,2.66 ± 0.23,2.71 ± 0.23,2.74 ± 0.24
CC(C)CCO [3-methylbutan-1-ol] + CCC[n+]1ccn(C)c1C.F[B-](F)(F)F,,4.91 ± 0.42,4.46 ± 0.39,4.18 ± 0.36,3.78 ± 0.33,3.42 ± 0.29,3.02 ± 0.26
CCCO [propan-1-ol] + CCC[n+]1ccn(C)c1C.F[B-](F)(F)F,3.26 ± 0.28,3.01 ± 0.26,2.81 ± 0.24,2.59 ± 0.22,2.37 ± 0.2,2.19 ± 0.19,1.88 ± 0.16
ClC(Cl)(Cl)Cl [tetrachloromethane] + CCC[n+]1ccn(C)c1C.F[B-](F)(F)F,8.11 ± 0.7,8.63 ± 0.74,9.13 ± 0.79,9.58 ± 0.83,10 ± 0.86,10.4 ± 0.9,10.7 ± 0.92
CCCCCO [pentan-1-ol] + CCC[n+]1ccn(C)c1C.F[B-](F)(F)F,,6.2 ± 0.54,5.31 ± 0.46,4.65 ± 0.4,4.05 ± 0.35,3.68 ± 0.32,3.12 ± 0.27
CO [methanol] + CCC[n+]1ccn(C)c1C.F[B-](F)(F)F,0.898 ± 0.074,0.869 ± 0.072,0.823 ± 0.069,0.777 ± 0.065,0.713 ± 0.061,0.684 ± 0.059,0.642 ± 0.056
ClC(Cl)Cl [trichloromethane] + CCC[n+]1ccn(C)c1C.F[B-](F)(F)F,1.14 ± 0.094,1.29 ± 0.11,1.4 ± 0.12,1.52 ± 0.13,1.65 ± 0.14,1.78 ± 0.15,1.91 ± 0.16
"C1COCCO1 [1,4-dioxane] + CCC[n+]1ccn(C)c1C.F[B-](F)(F)F",2.96 ± 0.26,3.08 ± 0.27,3.14 ± 0.27,3.17 ± 0.27,3.24 ± 0.28,3.29 ± 0.28,3.35 ± 0.29
